Data published in ChEMBL document CHEMBL6078646, “Target Ligand Separation and Identification of Isoforsythiaside as a Histone Lysine-Specific Demethylase 1 Covalent Inhibitor Against Breast Cancer Metastasis” (J Med Chem, 2024).
The source made the active and inactive calls. The rule behind the calls is not given here.

Assays:
[1] = system: MDA-MB-231; assay: Induction of LSD1 degradation in human MDA-MB-231 cells at 4 to 32 uM in presence of MG132 by Western blot analysis; assay type: cell-based; details: dose 4-32 µM
[2] = system: MDA-MB-231; assay: Cytotoxicity against human MDA-MB-231 cells assessed as cell viability at 0 to 100 uM incubated for 24 hrs by MTT assay; assay type: functional; details: dose 0-100 µM
[3] = target: T1, Lysine-specific histone demethylase 1A (Homo sapiens, UniProt O60341); assay: Binding affinity to recombinant LSD1 (unknown origin) at S817 residue by LC-MS/MS analysis
[4] = Toxicity in female Balb/c mouse assessed as histological changes in heart at 50 mg/kg, ip administered every other day for 7 times by H and E staining based analysis; assay type: organism-based; details: in vivo
[5] = Toxicity in female Balb/c nude mouse xenografted with human MDA-MB-231 cells expressing luciferase assessed as appearance of kidney lesions at 12 to 50 mg/kg, ip administered every 3 days and measured after 30 days by H and E staining based analysis; assay type: organism-based; details: in vivo, 720 h, dose 12-50 mg/kg, time 30 day
[6] = system: MDA-MB-231; assay: Upregulation of H3K4me1 protein expression in human MDA-MB-231 cells by Western blot analysis; assay type: functional, cell-based; details: dose 4-32 µM
[7] = system: MDA-MB-231; assay: Induction of RBMS3 promoter transcriptional activity in human MDA-MB-231 cells by luciferase reporter gene assay; assay type: functional, cell-based
[8] = system: MDA-MB-231; assay: Effect on N-cadherin protein expression in LSD1 knockout human MDA-MB-231 cells at 16 uM by Western blot analysis; assay type: functional, cell-based
[9] = Toxicity in female Balb/c nude mouse xenografted with human MDA-MB-231 cells expressing luciferase assessed as abnormalities heart at 12 to 50 mg/kg, ip administered every 3 days and measured after 30 days by H and E staining based analysis; assay type: organism-based; details: in vivo, 720 h, dose 12-50 mg/kg, time 30 day
[10] = system: MDA-MB-231; assay: Upregulation of RBMS3 mRNA level in human MDA-MB-231 cells by qRT-PCR analysis; assay type: functional, cell-based; details: dose 4-32 µM
[11] = Toxicity in female Balb/c mouse assessed as effect on ALT level at 50 mg/kg, ip administered every other day for 7 times; assay type: organism-based; details: in vivo
[12] = system: MDA-MB-231; assay: Inhibition of cell invasion in LSD1 knockout human MDA-MB-231 cells at 16 uM incubated for 24 hrs by phase contract microscopy based transwell assay; assay type: functional
[13] = Toxicity in female Balb/c mouse assessed as effect on LDH level at 50 mg/kg, ip administered every other day for 7 times; assay type: organism-based; details: in vivo
[14] = system: MDA-MB-231; assay: Effect on E-cadherin protein expression in LSD1 knockout human MDA-MB-231 cells at 16 uM by Western blot analysis; assay type: functional, cell-based
[15] = system: MDA-MB-231; assay: Antimetastatic activity against human MDA-MB-231 cells expressing luciferase xenografted in female Balb/c nude mouse assessed as reduction in number of metastatic nodules in the lung at 50 mg/kg, ip administered every 3 days and measured after 30 days by H and E staining based histopathological analysis relative to control; assay type: functional; set-up: scale not given: the % may be the effect or the level left; details: time 30 day
[16] = target: T1, Lysine-specific histone demethylase 1A; assay: Binding affinity to LSD1 (unknown origin) assessed as thermal stability preincubated for 30 mins followed by incubation under 37 to 52 degreeC for 5 mins by CETSA; details: time 35.0 min
[17] = system: MDA-MB-231; assay: Inhibition of epithelial to mesenchymal transition in human MDA-MB-231 cells assessed as downregulation of N-cadherin protein expression by Western blotting analysis; assay type: functional, cell-based; details: dose 0-32 µM
[18] = system: MDA-MB-231; assay: Effect on LSD1 protein expression in human MDA-MB-231 cells at 4 to 32 uM by Western blot analysis; assay type: functional, cell-based; details: dose 4-32 µM
[19] = Cytotoxicity against human MCF-10A cells assessed as cell viability at 0 to 100 uM incubated for 24 hrs by MTT assay; assay type: toxicity, cell-based; details: dose 0-100 µM, read-out: Activity
[20] = system: MDA-MB-231; assay: Upregulation of RBMS3 promoter level in human MDA-MB-231 cells by chromatin immunoprecipitation assay; assay type: functional, cell-based
[21] = species on record: Homo sapiens; assay: Effect on LSD1/CoREST/HDAC1/HDAC2 (unknown origin) complex by coimmunoprecipitation analysis
[22] = Toxicity in female Balb/c mouse assessed as effect on WBC level at 50 mg/kg, ip administered every other day for 7 times; assay type: organism-based; details: in vivo
[23] = target: T1, Lysine-specific histone demethylase 1A; assay: Inhibition of LSD1 (unknown origin) at 0.32 to 6.40 uM; details: dose 0.32-6.4 µM, time 0-25 min
[24] = Half-life in male Sprague-Dawley rat at 10 mg/kg, ip measured at 0 to 1440 mins by LC-MS/MS analysis; assay type: ADME, organism-based; details: in vivo, time 0-1440 min
[25] = system: MDA-MB-231; assay: Inhibition of cell migration in LSD1 knockout human MDA-MB-231 cells at 16 uM incubated for 24 hrs by phase-contrast microscopy based wound healing assay; assay type: functional
[26] = Toxicity in female Balb/c mouse assessed as histological changes in spleen at 50 mg/kg, ip administered every other day for 7 times by H and E staining based analysis; assay type: organism-based; details: in vivo
[27] = Toxicity in female Balb/c nude mouse xenografted with human MDA-MB-231 cells expressing luciferase assessed as abnormalities kidney at 12 to 50 mg/kg, ip administered every 3 days and measured after 30 days by H and E staining based analysis; assay type: organism-based; details: in vivo, 720 h, dose 12-50 mg/kg, time 30 day
[28] = Toxicity in female Balb/c mouse assessed as effect on creatinine level at 50 mg/kg, ip administered every other day for 7 times; assay type: organism-based; details: in vivo
[29] = Acute toxicity in female ICR mouse assessed as lethal dose administered intraperitoneally for 14 days; details: in vivo, route ip, time 14 day
[30] = system: MDA-MB-231; assay: Antimetastatic activity against LSD1 knockout human MDA-MB-231 cells xenografted in mouse model assessed as reduction in metastatic nodules in lung measured after 27 days by H and E staining based analysis; assay type: functional, cell-based; details: time 27.0 day
[31] = target: T1, Lysine-specific histone demethylase 1A; assay: Non-competitive inhibition of LSD1 (unknown origin) using H3K4me2 as substrate by Lineweaver-Burk plot analysis
[32] = system: MDA-MB-231; assay: Antimetastatic activity against human MDA-MB-231 cells expressing luciferase xenografted in female Balb/c nude mouse assessed as reduction in fluorescence intensity in lungs at 25 mg/kg, ip administered every 3 days and measured on day 15 by bioluminescence imaging analysis relative to control; assay type: functional; set-up: scale not given: the % may be the effect or the level left; details: time 15 day
[33] = system: MDA-MB-231; assay: Antimetastatic activity against human MDA-MB-231 cells expressing luciferase xenografted in female Balb/c nude mouse assessed as reduction in number of metastatic nodules in the lung at 12 mg/kg, ip administered every 3 days and measured after 30 days by H and E staining based histopathological analysis relative to control; assay type: functional; set-up: scale not given: the % may be the effect or the level left; details: time 30 day
[34] = target: T1, Lysine-specific histone demethylase 1A; assay: Binding affinity to LSD1 (unknown origin) assessed as dissociation constant by Microscale thermophoresis assay
[35] = system: MDA-MB-231; assay: Effect on LSD1 nuclear localization in human MDA-MB-231 cells transfected with LSD1 fluorescence antibody by fluorescence based analysis; assay type: functional, cell-based
[36] = species on record: Homo sapiens; assay: Binding affinity to recombinant LSD1 Ser817A mutant (unknown origin) by MST assay
[37] = Toxicity in female Balb/c mouse assessed as effect on hemoglobin level at 50 mg/kg, ip administered every other day for 7 times; assay type: organism-based; details: in vivo
[38] = Toxicity in female Balb/c mouse assessed as histological changes in kidney at 50 mg/kg, ip administered every other day for 7 times by H and E staining based analysis; assay type: organism-based; details: in vivo

Structure (SMILES): C[C@@H]1O[C@H](OC[C@H]2O[C@@H](OCCc3ccc(O)c(O)c3)[C@H](O)[C@@H](OC(=O)/C=C/c3ccc(O)c(O)c3)[C@@H]2O)[C@H](O)[C@H](O)[C@H]1O
- Activity [1]: inactive
- Activity [2]: >90%
- Activity [3]: Active
- Activity [4]: Non-toxic
- Activity [5]: Non-toxic
- Activity [6]: Dose-dependent-effect
- Activity [7]: Active
- Activity [8]: inactive
- Activity [9]: Non-toxic
- Activity [10]: Dose-dependent-effect
- Activity [11]: Non-toxic
- inhibition [12]: Active; No Significant Difference With Lsd1 Knockout Control Group
- Activity [13]: Non-toxic
- Activity [14]: inactive
- Activity [15]: 52.5%
- Activity [16]: Active
- inhibition [17]: Dose-dependent-effect
- Activity [18]: inactive
- viability at 24 h, up to 100 µM [19]: > 90%
- Activity [20]: Active
- Activity [21]: inactive
- Activity [22]: Non-toxic
- inhibition [23]: Time-dependent-effect
- half-life [24]: 34.8 min
- inhibition [25]: Active; No Significant Difference With Lsd1 Knockout Control Group
- Activity [26]: Non-toxic
- Activity [27]: Non-toxic
- Activity [28]: Non-toxic
- LD50 at 336 h [29]: > 600 mg/kg
- Activity [30]: Active; No Significant Difference Compared To Lsd1 Knockout Control Group
- inhibition [31]: Active
- Activity [32]: 46.4%
- Activity [33]: 7.1%
- Kd [34]: 5.19 µM
- Activity [35]: inactive
- Activity [36]: inactive
- Activity [37]: Non-toxic
- Activity [38]: Non-toxic
